{"source": "patent US10189842B2", "about": "(Agency for Science, Technology and Research, priority 2013, dated 2019)", "key": {"[1]": {"tested_on": "AsPC-1 cells", "assay": "Soft agar assay, AsPC-1", "type": "cell-based", "settings": "for IC50: Homo sapiens, ASPC1", "description": "(§1) AsPC-1 cells were maintained in RPMI164 supplemented with 10% FBS, 2 mM L-glutamine and P/S (100 units/ml penicillin and 100 μg/ml streptomycin). HPAF-II cells were maintained in MEM (Eagles′) supplemented with 10% FBS, 2 mM L-glutamine and P/S (100 units/ml penicillin and 100 μg/ml streptomycin). CFPAC-1 cells were maintained in Iscove MEM supplemented with 10% FBS, 2 mM L-glutamine and P/S (100 units/ml penicillin and 100 μg/ml streptomycin).\n(§2) 600 μl of 0.6% agar was added to 24-well plate to form the base layer. Then a middle layer of 0.36% agar (containing 5000 cells and serially diluted compound) was added on to the base layer. Finally 500 μl of fresh growth medium was added to the top of the middle layer. The plates were incubated at 37° C. with 5% carbon dioxide in a humidified incubator for 2 weeks. Formation of colonies was observed using a light microscope. When the colony size was larger than 500 μm, 70 μl MTT (5 mg/ml) was added to each well and the plates were incubated at 37° C. for at least 2 hours. Colonies were counted with GelCount® instrument. The colony counts were plotted against compound concentrations using the GraphPad Prism software. The software was also used to perform non-linear curve fitting and calculation of compound concentration that inhibited 50% colony formation."}, "[2]": {"tested_on": "MMTV-Wnt1 tumor", "assay": "MMTV-Wnt1 mouse model", "type": "in vivo", "settings": "for % T/C / % TGI / NTRD / T/C / TRD: Day 14", "description": "8-10 weeks old Female BALBc mice were anesthetised with 150 mg/kg Ketamine+75 mg/kg Xylazine. Under aseptic conditions, skin near the 4th mammary fat pad was incised. Mammary fat pad was tweaked with forceps and tumor fragment ˜2 mm^3 was implanted. The incision was closed using a tissue adhesive. Animals were randomised into groups of eight and treated daily with the test compounds for 14 days. Tumors were measured in two dimensions using calipers, and volume was calculated using the formula: Tumor Volume (mm^3)=[…]. Maximum tumor volume limit was 2000 mm^3."}, "[3]": {"tested_on": "HEK293-STF3A cells", "assay": "STF3A assay (luciferase reporter)", "type": "cell-based, Human", "settings": "Homo sapiens, 24 h, 1 day of treatment", "in_short": "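HEK293 cells carrying the STF reporter and expressing Wnt3A, seeded 2×10^4 per well overnight, then treated 1 day with compound at final 50 μM to 1.5 nM. Luciferase activity read by luminescence after Steady-Glo reagent, 10 min at room temperature.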"}, "[4]": {"tested_on": "CFPAC-1 cells", "assay": "Soft agar assay, CFPAC-1", "type": "cell-based", "settings": "for IC50: Homo sapiens", "description": "as §1, §2"}, "[5]": {"tested_on": "mammalian PORCN", "assay": "PORCN-null HT1080 cells transfected with mammalian PORCN, WNT3A, STF reporter", "type": "cell-based", "settings": "luciferase, FIG. 1", "description": "PORCN-null HT1080 cells were transfected with mammalian or Xenopus PORCN expression plasmids, along with WNT3A, STF reporter and mCherry as transfection control. 6 hours after transfection, cells were treated with the compounds or DMSO as indicated, and the following day assayed for luciferase. Xenopus PORCN was resistant to the inhibitory effects of compounds."}, "[6]": {"tested_on": "V5-tagged Wnt3a", "assay": "Wnt3A palmitoylation assay", "type": "cell-based", "settings": "100 nM compound, HeLa cells, FIG. 4", "source_text": "Wnt3A Palmitoylation Assay:\nThe assay used to determine the inhibition of the palmitoylation of Wnts by compound was described by Yap et al, (Yap MC, Kostiuk MA, Martin DD, Perinpanayagam MA, Hak PG, Siddam A, Majjigapu JR, Rajaiah G, Keller BO, Prescher JA, Wu P, Bertozzi CR, Falck JR, Berthiaume LG. 2010. Rapid and selective detection of fatty acylated proteins using omega-alkynyl-fatty acids and click chemistry. J Lipid Res. 51(6):1566-1580) with some modification. 3×10^6 HeLa cells were seeded in 10 cm culture dish and incubated at 37° C. overnight. […] After six hours, the cells were washed with PBS and treated with 100 μM alkyne palmitate in medium with 5% BSA. 100 nM compound or DMSO was added and the cells were incubated overnight at 37° C. The cells were lyzed and 600 μg cell lysate was collected and incubated with anti-V5 antibody (Invitrogen) followed by the pull down of V5-Wnt3a with the addition of Protein A/G agarose beads (Thermo scientific). The pulled down lysates containing V5-Wnt3a was click-reacted with biotin-azide (Invitrogen). The biotin-labelled protein lysate was then separated on SDS-PAGE and transferred to a nitrocellulose membrane. The membrane was incubated with primary anti-V5 antibody, followed by secondary anti-mouse Dylight 680 (Thermo scientific) to detect V5-Wnt3a. […]"}, "[7]": {"tested_on": "HPAF-II cells", "assay": "Soft agar assay, HPAF-II", "type": "cell-based", "settings": "for IC50: Homo sapiens", "description": "as §1, §2"}}, "note": "Read-outs that look alike come from different tables or passages of the source.", "data": [{"smiles": "Cc1cc2n(n1)CCCN2C(=O)CCC(=O)Nc1ccc(-c2cccnc2)nn1", "note": "[Compound 51, 4-(2-methyl-6,7-dihydropyrazolo[1,5-a]pyrimidin-4(5H)-yl)-4-oxo-N-(6-(pyridin-3-yl)pyridazin-3-yl)butanamide]", "values": [{"measurement": "Maximum inhibition", "setting": "[1]; AsPC-1", "value": 76, "unit": "%"}, {"measurement": "IC50", "setting": "[1]; AsPC-1, Test 1, read-out: Test 1 IC50 (colony growth inhibitory concentration)", "value": 24, "unit": "nM"}, {"measurement": "IC50", "setting": "[1]; AsPC-1, Test 2, read-out: Test 2 IC50 (colony growth inhibitory concentration)", "value": 10, "unit": "nM"}, {"measurement": "IC50", "setting": "[1]; AsPC-1, mean of two independent experiments, read-out: Mean IC50 (colony growth inhibitory concentration)", "value": 17, "unit": "nM"}, {"measurement": "% T/C", "setting": "[2]; 1 mg/Kg daily", "value": 37.5, "unit": "%"}, {"measurement": "% TGI", "setting": "[2]; 1 mg/Kg daily", "value": 68, "unit": "%"}, {"measurement": "NTRD", "setting": "[2]; 1 mg/Kg daily", "value": "1/8"}, {"measurement": "T/C", "setting": "[2]; 1 mg/Kg daily", "value": 0.375}, {"measurement": "TRD", "setting": "[2]; 1 mg/Kg daily", "value": "0/8"}, {"measurement": "% T/C", "setting": "[2]; 3 mg/Kg daily", "value": 38.3, "unit": "%"}, {"measurement": "% TGI", "setting": "[2]; 3 mg/Kg daily", "value": 67, "unit": "%"}, {"measurement": "NTRD", "setting": "[2]; 3 mg/Kg daily", "value": "0/8"}, {"measurement": "T/C", "setting": "[2]; 3 mg/Kg daily", "value": 0.383}, {"measurement": "TRD", "setting": "[2]; 3 mg/Kg daily", "value": "0/8"}, {"measurement": "% T/C", "setting": "[2]; 10 mg/Kg daily", "value": 16.0, "unit": "%"}, {"measurement": "% TGI", "setting": "[2]; 10 mg/Kg daily", "value": 91, "unit": "%"}, {"measurement": "NTRD", "setting": "[2]; 10 mg/Kg daily", "value": "0/8"}, {"measurement": "T/C", "setting": "[2]; 10 mg/Kg daily", "value": 0.160}, {"measurement": "TRD", "setting": "[2]; 10 mg/Kg daily", "value": "0/8"}, {"measurement": "tumor growth", "setting": "[2]; treated mice, FIG. 2 and FIG. 3", "value": "decreased tumor growth in all the treated mice"}, {"measurement": "IC50", "setting": "[3]", "value": "< 100", "unit": "nM"}, {"measurement": "Maximum inhibition", "setting": "[4]; CFPAC-1", "value": 79, "unit": "%"}, {"measurement": "IC50", "setting": "[4]; CFPAC-1, Test 1, read-out: Test 1 IC50 (colony growth inhibitory concentration)", "value": 58, "unit": "nM"}, {"measurement": "IC50", "setting": "[4]; CFPAC-1, Test 2, read-out: Test 2 IC50 (colony growth inhibitory concentration)", "value": 39, "unit": "nM"}, {"measurement": "IC50", "setting": "[4]; CFPAC-1, mean of two independent experiments, read-out: Mean IC50 (colony growth inhibitory concentration)", "value": 49, "unit": "nM"}, {"measurement": "inhibition of the activity of mammalian porcupine", "setting": "[5]", "value": "inhibit the activity of mammalian porcupine"}, {"measurement": "Palmitoylation of Wnt3a", "setting": "[6]", "value": "inhibited"}, {"measurement": "Maximum inhibition", "setting": "[7]", "value": 97, "unit": "%"}, {"measurement": "IC50", "setting": "[7]; Test 1, read-out: Test 1 IC50 (colony growth inhibitory concentration)", "value": 8, "unit": "nM"}, {"measurement": "IC50", "setting": "[7]; Test 2, read-out: Test 2 IC50 (colony growth inhibitory concentration)", "value": 10, "unit": "nM"}, {"measurement": "IC50", "setting": "[7]; mean of two independent experiments, read-out: Mean IC50 (colony growth inhibitory concentration)", "value": 9, "unit": "nM"}]}]}
